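Step 1: Grow cells in 96-well plates. Step 2: Expose to compound for 48 hours at 5 concentrations. Step 3: Interpolate endpoints linearly; if unreached, use highest concentration. GI50 = concentration required for 50% inhibition of growth. TGI marks complete inhibition of growth.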
How the values were obtained:
Assay in all cases: NCI tumour cell line growth inhibition, 48 h
SNB-75 CNS = test system: SNB-75 CNS
CAKI-1 renal = test system: CAKI-1 renal
SF-295 CNS = test system: SF-295 CNS
SK-MEL-2 melanoma = test system: SK-MEL-2 melanoma
UACC-62 melanoma = test system: UACC-62 melanoma
CCRF-CEM leukemia = test system: CCRF-CEM leukemia
HCT-15 colon = test system: HCT-15 colon
BT-549 breast = test system: BT-549 breast
TK-10 renal = test system: TK-10 renal
OVCAR-4 ovarian = test system: OVCAR-4 ovarian

Q: How did the GI50 (SNB-75 CNS) turn out when `N#CC(C#N)=CN1CCN(C(=O)c2ccco2)C1=S` was run?
A: 40.6 µM

Q: And the TGI (SNB-75 CNS)?
A: > 100 µM

Q: What about the GI50 (CAKI-1 renal) of the same compound?
A: 4.76 µM

Q: And the TGI (CAKI-1 renal)?
A: 30.5 µM

Q: What about the GI50 (SF-295 CNS) of the same compound?
A: 31.3 µM

Q: What about the TGI (SF-295 CNS) of the same compound?
A: > 100 µM

Q: And the GI50 (SK-MEL-2 melanoma)?
A: 4.28 µM

Q: What about the TGI (SK-MEL-2 melanoma) of the same compound?
A: 12.8 µM

Q: And the GI50 (UACC-62 melanoma)?
A: 8.81 µM

Q: And the TGI (UACC-62 melanoma)?
A: 25.4 µM

Q: And the GI50 (CCRF-CEM leukemia)?
A: 79.7 µM

Q: What about the TGI (CCRF-CEM leukemia) of the same compound?
A: > 100 µM

Q: And the GI50 (HCT-15 colon)?
A: 5.23 µM

Q: What about the TGI (HCT-15 colon) of the same compound?
A: > 100 µM

Q: What about the GI50 (BT-549 breast) of the same compound?
A: 6.85 µM

Q: What about the TGI (BT-549 breast) of the same compound?
A: 54.6 µM

Q: What about the GI50 (TK-10 renal) of the same compound?
A: 4.62 µM

Q: What about the TGI (TK-10 renal) of the same compound?
A: 32.7 µM

Q: And the GI50 (OVCAR-4 ovarian)?
A: 20.1 µM

Q: And the TGI (OVCAR-4 ovarian)?
A: 46 µM

Q: `O=C(O)C(=C\c1ccc2c(c1)OCO2)/C(=C/c1ccc2c(c1)OCO2)C(=O)O` was tested. Which TGI (SNB-75 CNS) did it give?
A: > 100 µM

Q: And the TGI (CAKI-1 renal)?
A: > 100 µM

Q: What about the TGI (SF-295 CNS) of the same compound?
A: > 100 µM

Q: What about the TGI (SK-MEL-2 melanoma) of the same compound?
A: > 100 µM

Q: And the TGI (UACC-62 melanoma)?
A: > 100 µM

Q: What about the TGI (CCRF-CEM leukemia) of the same compound?
A: > 100 µM

Q: What about the TGI (HCT-15 colon) of the same compound?
A: > 100 µM

Q: And the TGI (BT-549 breast)?
A: > 100 µM

Q: And the TGI (TK-10 renal)?
A: > 100 µM

Q: And the TGI (OVCAR-4 ovarian)?
A: > 100 µM

Q: What does the source list for `Cc1c(C#N)c2nnn(C)c(=O)n2c1-c1ccccc1`?
A: TGI (SNB-75 CNS): > 100 µM; TGI (CAKI-1 renal): > 100 µM; TGI (SF-295 CNS): > 100 µM; TGI (SK-MEL-2 melanoma): > 100 µM; TGI (UACC-62 melanoma): > 100 µM; TGI (CCRF-CEM leukemia): > 100 µM; TGI (HCT-15 colon): > 100 µM; TGI (BT-549 breast): > 100 µM; TGI (TK-10 renal): > 100 µM; TGI (OVCAR-4 ovarian): > 100 µM
